Here are results for 20 molecules from patent publication US20120225862A1, “HETEROARYL BENZAMIDES, COMPOSITIONS AND METHODS OF USE” (AUCKLAND UNIVSERVICES LIMITED, priority 2009, published 2012).

The subject of one assay is RCC4. Briefly: XTT IC50 / viability assay, RCC4 cells. The format is cell-based, human. Particulars: Homo sapiens, RCC4, 96 h; XTT assay, four days. A digest of the protocol:
(§1)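 RCC4 parental and VHL-reintroduced RCC4/VHL cells (DMEM, 10% FCS) treated with serially diluted drug for four days. Viability by XTT (0.3 mg/mL) with N-methyl dibenzopyrazine methyl sulfate, 1–2 h at 37 °C, absorbance 450 nm; IC50 by linear interpolation.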
A general note: Formazan colour is commonly taken as a measure of viable cells.

The next assay concerns RCC4/VHL. Briefly: XTT IC50 assay, selectivity RCC4 versus RCC4 with VHL-reintroduced. The format is cell-based, human. Particulars: selectivity ratio of XTT IC50 values, RCC4 vs RCC4/VHL. The procedure, abridged:
as §1

Regarding `CC(C)(C)c1ccc(S(=O)(=O)NCc2ccc(C(=O)Nc3cnccc3Cl)cc2)cc1` [Example 112, 4-({[(4-tert-Butylphenyl)sulfonyl]amino}methyl)-N-(4-chloro-3-pyridinyl)benzamide], the IC50 (commonly the concentration at which inhibition is half-maximal) in the assay with RCC4 is greater than 20 µM. Moreover, the “Ratio (RCC4:RCC/VHL)” value with RCC4/VHL is “a (“a” reflects a ratio of RCC4/RCC-VHL+ ranging from 1 to 10)”.

For `CC(C)(C)c1ccc(S(=O)(=O)NCc2ccc(C(=O)Nc3cccnc3Cl)cc2)cc1` [Example 113, 4-({[(4-tert-Butylphenyl)sulfonyl]amino}methyl)-N-(2-chloro-3-pyridinyl)benzamide], the IC50 with RCC4 is greater than 20 µM. In addition, the “Ratio (RCC4:RCC/VHL)” value in the assay on RCC4/VHL is given as “a (“a” reflects a ratio of RCC4/RCC-VHL+ ranging from 1 to 10)”.

In the case of `CC(C)(C)c1ccc(S(=O)(=O)NCc2ccc(C(=O)Nc3ccc(N4CCOCC4)nc3)cc2)cc1` [Example 117, 4-({[(4-tert-Butylphenyl)sulfonyl]amino}methyl)-N-[6-(4-morpholinyl)-3-pyridinyl]benzamide], the IC50 in the assay with RCC4 is greater than 20 µM. Moreover, the “Ratio (RCC4:RCC/VHL)” value with RCC4/VHL was “a (“a” reflects a ratio of RCC4/RCC-VHL+ ranging from 1 to 10)”.

`CC(C)(C)c1ccc(S(=O)(=O)NCc2ccc(C(=O)Nc3cnccc3C(F)(F)F)cc2)cc1` [Example 122, 4-({[(4-tert-Butylphenyl)sulfonyl]amino}methyl)-N-[4-(trifluoromethyl)-3-pyridinyl]benzamide] displayed an IC50 in the assay with RCC4 of 1 to 20 µM. Also, the “Ratio (RCC4:RCC/VHL)” value with RCC4/VHL is reported as “a (“a” reflects a ratio of RCC4/RCC-VHL+ ranging from 1 to 10)”.

In turn, `CC(C)(C)c1ccc(S(=O)(=O)NCc2ccc(C(=O)Nc3cccnc3F)cc2)cc1` [Example 123, 4-({[(4-tert-Butylphenyl)sulfonyl]amino}methyl)-N-(2-fluoro-3-pyridinyl)benzamide] gave an IC50 in the assay on RCC4 of 1 to 20 µM. Moreover, the “Ratio (RCC4:RCC/VHL)” value in the assay with RCC4/VHL is recorded as “a (“a” reflects a ratio of RCC4/RCC-VHL+ ranging from 1 to 10)”.

Molecule `O=C(Nc1cccnc1)c1ccc(CNS(=O)(=O)c2cccc(N3CCOCC3)c2)cc1` [Example 126, 4-[({[3-(4-Morpholinyl)phenyl]sulfonyl}amino)methyl]-N-(3-pyridinyl)benzamide] yielded a 50% inhibitory concentration (IC50) in the assay with RCC4 of 1 to 20 µM. For the same molecule, the “Ratio (RCC4:RCC/VHL)” value in the assay with RCC4/VHL is reported as “b (“b” reflects from 10 to 100)”.

In the assay on RCC4, `O=C(Nc1cccnc1)c1ccc(CNS(=O)(=O)c2ccc(N3CCOCC3)cc2)cc1` [Example 127, 4-[({[4-(4-Morpholinyl)phenyl]sulfonyl}amino)methyl]-N-(3-pyridinyl)benzamide] yielded a 50% inhibitory concentration (IC50) of less than 1 µM. In the assay on RCC4/VHL, the “Ratio (RCC4:RCC/VHL)” value is “b (“b” reflects from 10 to 100)”.

Turning to `O=C(Nc1cccnc1)c1ccc(CNS(=O)(=O)c2ccc(N3CCCCC3)cc2)cc1` [Example 128, 4-[({[4-(1-Piperidinyl)phenyl]sulfonyl}amino)methyl]-N-(3-pyridinyl)benzamide], in the assay on RCC4, the IC50 was less than 1 µM. The “Ratio (RCC4:RCC/VHL)” value in the assay with RCC4/VHL was “c (“c” reflects a ratio of >100)”.

`COC1CCN(c2ccc(S(=O)(=O)NCc3ccc(C(=O)Nc4cccnc4)cc3)cc2)CC1` [Example 129, 4-[({[4-(4-Methoxy-1-piperidinyl)phenyl]sulfonyl}amino)methyl]-N-(3-pyridinyl)benzamide] registered an IC50 in the assay on RCC4 of less than 1 µM. In addition, the “Ratio (RCC4:RCC/VHL)” value with RCC4/VHL is listed as “c (“c” reflects a ratio of >100)”.

Regarding `NCCOCCOCCOCCOCCOCCOCCCc1ccc(S(=O)(=O)NCc2ccc(C(=O)Nc3cccnc3)cc2)cc1` [Example 130, 4-[({[4-(21-Amino-4,7,10,13,16,19-hexaoxahenicos-1-yl)phenyl]sulfonyl}amino)methyl]-N-(3-pyridinyl)benzamide], the IC50 in the assay on RCC4 was 1 to 20 µM. Moreover, in the assay with RCC4/VHL, the “Ratio (RCC4:RCC/VHL)” value is reported as “a (“a” reflects a ratio of RCC4/RCC-VHL+ ranging from 1 to 10)”.

As to `O=C(Nc1cccnc1)c1ccc(CNS(=O)(=O)c2ccc(NCCCN3CCOCC3)cc2)cc1` [Example 131, 4-({[(4-{[3-(4-Morpholinyl)propyl]amino}phenyl)sulfonyl]amino}methyl)-N-(3-pyridinyl)benzamide], the half-maximal inhibitory concentration (IC50) with RCC4 is less than 1 µM. For the same molecule, the “Ratio (RCC4:RCC/VHL)” value in the assay on RCC4/VHL is “b (“b” reflects from 10 to 100)”.

Regarding `CN1CCN(c2cccc(S(=O)(=O)NCc3ccc(C(=O)Nc4cccnc4)cc3)c2)CC1` [Example 132, 4-[({[3-(4-Methyl-1-piperazinyl)phenyl]sulfonyl}amino)methyl]-N-(3-pyridinyl)benzamide], the half-maximal inhibitory concentration (IC50) in the assay on RCC4 is less than 1 µM. Further, the “Ratio (RCC4:RCC/VHL)” value in the assay on RCC4/VHL was “b (“b” reflects from 10 to 100)”.

`CN(C)CCNc1ccc(S(=O)(=O)NCc2ccc(C(=O)Nc3cccnc3)cc2)cc1` [Example 133, 4-({[(4-{[2-(Dimethylamino)ethyl]amino}phenyl)sulfonyl]amino}methyl)-N-(3-pyridinyl)benzamide] had an IC50 in the assay on RCC4 of less than 1 µM. In the assay on RCC4/VHL, the “Ratio (RCC4:RCC/VHL)” value is on record as “c (“c” reflects a ratio of >100)”.

In the assay on RCC4, `O=C(Nc1cccnc1)c1ccc(CNS(=O)(=O)c2ccc(Cc3ccccc3)cc2)cc1` [Example 135, 4-({[(4-Benzylphenyl)sulfonyl]amino}methyl)-N-(3-pyridinyl)benzamide] showed an IC50 of less than 1 µM. The “Ratio (RCC4:RCC/VHL)” value in the assay with RCC4/VHL is given as “b (“b” reflects from 10 to 100)”.

As to `O=C(Nc1cccnc1)c1ccc(CNS(=O)(=O)c2ccc(C#CCN3CCOCC3)cc2)cc1` [Example 136, 4-{[({4-[3-(4-Morpholinyl)-1-propynyl]phenyl}sulfonyl)amino]methyl}-N-(3-pyridinyl)benzamide], in the assay on RCC4, the IC50 was less than 1 µM. The “Ratio (RCC4:RCC/VHL)” value in the assay on RCC4/VHL is “b (“b” reflects from 10 to 100)”.

In the assay with RCC4, `CN(C)CC#Cc1ccc(S(=O)(=O)NCc2ccc(C(=O)Nc3cccnc3)cc2)cc1` [Example 137, 4-{[({4-[3-(Dimethylamino)-1-propynyl]phenyl}sulfonyl)amino]methyl}-N-(3-pyridinyl)benzamide] yielded an IC50 of less than 1 µM. For the same molecule, in the assay with RCC4/VHL, the “Ratio (RCC4:RCC/VHL)” value was “b (“b” reflects from 10 to 100)”.

`CN(Cc1ccc(C(=O)Nc2cccnc2)cc1)S(=O)(=O)c1ccc(C(C)(C)C)cc1` [Example 138, 4-{[[(4-tert-Butylphenyl)sulfonyl](methyl)amino]methyl}-N-(3-pyridinyl)benzamide] had an IC50 in the assay with RCC4 of 1 to 20 µM. In the assay with RCC4/VHL, the “Ratio (RCC4:RCC/VHL)” value is listed as “a (“a” reflects a ratio of RCC4/RCC-VHL+ ranging from 1 to 10)”.

The molecule `CCN(Cc1ccc(C(=O)Nc2cccnc2)cc1)S(=O)(=O)c1ccc(C(C)(C)C)cc1` [Example 139, 4-{[[(4-tert-Butylphenyl)sulfonyl](ethyl)amino]methyl}-N-(3-pyridinyl)benzamide] gave an IC50 with RCC4 greater than 20 µM. In addition, in the assay with RCC4/VHL, the “Ratio (RCC4:RCC/VHL)” value was “a (“a” reflects a ratio of RCC4/RCC-VHL+ ranging from 1 to 10)”.

On to `O=C(Nc1cccnc1)c1ccc(CNS(=O)(=O)c2ccc(CCCN3CCOCC3)cc2)cc1` [Example 141, 4-{[({4-[3-(4-Morpholinyl)propyl]phenyl}sulfonyl)amino]methyl}-N-(3-pyridinyl)benzamide], for which the IC50 in the assay with RCC4 is less than 1 µM. Also, in the assay on RCC4/VHL, the “Ratio (RCC4:RCC/VHL)” value is listed as “c (“c” reflects a ratio of >100)”.

On to `CN(C)CCCc1ccc(S(=O)(=O)NCc2ccc(C(=O)Nc3cccnc3)cc2)cc1` [Example 142, 4-{[({4-[3-(Dimethylamino)propyl]phenyl}sulfonyl)amino]methyl}-N-(3-pyridinyl)benzamide], for which the IC50 in the assay on RCC4 was less than 1 µM. The “Ratio (RCC4:RCC/VHL)” value in the assay on RCC4/VHL is on record as “b (“b” reflects from 10 to 100)”.
